Data: US5624941A, “Pyrazole derivatives, method of preparing them and pharmaceutical compositions in which they are present” (Sanofi, priority 1992, dated 1997)

Tests used:
cannabinoid receptors = biological target: T1, cannabinoid receptors (Mus musculus, UniProt P47746); experiment: antagonism of hypothermia induced by WIN 55 212-2 in mice; type: in vivo
T1 construct: from tissue; host or cells: whole living mouse (in vivo hypothermia test)

[1] = penetration of the blood-brain barrier / central nervous system; type: in vivo
rats = experiment: test of the central memory in rats (Perio et al.); type: in vivo; details: subcutaneous administration

T1 sequence (P47746 whole entry): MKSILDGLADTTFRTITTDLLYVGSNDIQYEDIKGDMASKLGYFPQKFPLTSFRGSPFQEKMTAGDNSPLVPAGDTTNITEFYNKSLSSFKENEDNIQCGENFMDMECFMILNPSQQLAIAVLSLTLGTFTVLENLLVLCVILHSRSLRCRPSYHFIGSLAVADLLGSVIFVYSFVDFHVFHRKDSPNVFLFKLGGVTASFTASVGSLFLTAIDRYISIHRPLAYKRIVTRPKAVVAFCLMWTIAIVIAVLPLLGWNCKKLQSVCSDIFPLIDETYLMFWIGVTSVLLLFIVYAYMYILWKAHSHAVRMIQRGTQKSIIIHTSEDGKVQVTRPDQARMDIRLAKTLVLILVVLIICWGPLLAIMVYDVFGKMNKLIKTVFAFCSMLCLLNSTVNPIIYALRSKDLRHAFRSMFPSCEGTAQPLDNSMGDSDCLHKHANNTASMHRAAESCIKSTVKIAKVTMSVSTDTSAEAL

SMILES: Cc1c(C(=O)NN2CCCCC2)nn(-c2ccc(Cl)cc2Cl)c1-c1ccc(Cl)cc1 [N-piperidino-5-(4-chlorophenyl)-1-(2,4-dichlorophenyl)-4-methyl-pyrazole-3-carboxamide]
- duration of action in the hypothermia test (cannabinoid receptors; mice, after oral administration of 3 mg/kg): 8 to 10 h
- ED50, antagonism of WIN 55 212-2 induced hypothermia (cannabinoid receptors; mice, i.p.): 0.3 mg/kg
- ED50, antagonism of WIN 55 212-2 induced hypothermia (cannabinoid receptors; mice, per os): 0.4 mg/kg
- activity upon oral administration (cannabinoid receptors; oral): active upon oral administration
- penetration in the central nervous system ([1]; confirmed by antagonism of agonist-induced hypothermia): good penetration
- penetration of the blood-brain barrier ([1]; in vivo): penetrates the blood-brain barrier
- memory capacities of rats in the test of the central memory (rats): improves the memory capacities of rats
- toxicity (toxicity): compatible with its use as a psychotropic drug
